This series can be described thus: Stability of SBA and SBB in plasma QC samples. It counts as in vitro ADME, rat. The conditions noted are these: three freeze–thaws, long-term, short-term, post-preparative. The protocol:
Next, we wanted to investigate the effect of baicalein on the PKs of silybin in vivo. A validated analytical method for the determination of silybin and its total conjugates in rat plasma by LC-MS was developed based on a previous report with minor modifications ([Yuan et al., 2017]). […] The results of precision and accuracy for intra- and inter-day evaluation are presented in Supplementary Table S2. The lower limit of quantification (LLOQ) was 5 ng/ml with relative standard deviation (RSD) ≤6.4%. The RSD values of quality control (QC) samples examined for precision were within 6.4%, while the accuracy ranged from 91.7 to 109.5%. It can be seen from Supplementary Table S2 that the extraction recoveries of silybin A and B were above 84.4% in plasma. Stability of SBA and SBB in plasma was also tested using QC samples at four different concentrations in the stability tests of three freeze–thaws, long-term, short-term, and post-preparative.
S. Table 1.Calibration curves for determination of S Ba, and S Bb in plasm a samples.
Cpd. Standard curv es R2 R ange
S. Table 2.P recision,accurac y and recover y for determination of S Ba, and S Bb in […]
S. Table 3. Stabilit y t esting results for determination of SBa, and S Bb in plasma […]
Initial a Freeze- thaw b Short-t e r m b Long- t e r m b Post-Prep. b […]
a. Contents of silybin and tangeretin in the freshly prepared QC samples. b. […]

Consider `COc1cc([C@H]2Oc3cc([C@H]4Oc5cc(O)cc(O)c5C(=O)[C@@H]4O)ccc3O[C@@H]2CO)ccc1O` [silybin A], for which the stability in plasma entry is reported as “without significant loss”.
For `COc1cc([C@@H]2Oc3cc([C@H]4Oc5cc(O)cc(O)c5C(=O)[C@@H]4O)ccc3O[C@H]2CO)ccc1O` [silybin B], the stability in plasma result is “without significant loss”.
